The nature of assay [1]: Antiproliferative activity against human MDA-PATC53 cells assessed as growth inhibition incubated at 10 uM for 24 hrs by MTT assay relative to control. Type of assay: functional. Particulars: read-out: GI.
Assay [2] in a line: Antiproliferative activity against human PL45 cells assessed as growth inhibition incubated at 10 uM for 24 hrs by MTT assay relative to control. The assay is classed as functional. Conditions: read-out: GI. A general note: Tetrazolium assays rely on reduction of a dye to a coloured formazan, in cell work by metabolically active cells.
The next assay concerns SK-MEL-1. The experiment in a line: Antiproliferative activity against human SK-MEL-1 cells assessed as growth inhibition incubated at 10 uM for 24 hrs by MTT assay relative to control. The assay is classed as functional. Particulars: read-out: GI.
A further assay has as its system A-375. The experiment in a line: Antiproliferative activity against human A-375 cells assessed as growth inhibition incubated at 10 uM for 24 hrs by MTT assay relative to control. The assay is classed as functional. Conditions: read-out: GI.
The subject of a further assay is G-361. The experiment in a line: Antiproliferative activity against human G-361 cells assessed as growth inhibition incubated at 10 uM for 24 hrs by MTT assay relative to control. Conditions: read-out: GI. Type of assay: functional.
The test system of the next assay is MOLT-4. The experiment in a line: Antiproliferative activity against human MOLT-4 cells assessed as growth inhibition incubated at 10 uM for 24 hrs by MTT assay relative to control. Type of assay: functional. Conditions: read-out: GI.
The test system of another assay is KG-1. The experiment in a line: Antiproliferative activity against human KG-1 cells assessed as growth inhibition incubated at 10 uM for 24 hrs by MTT assay relative to control. Particulars: read-out: GI. The assay is classed as functional.
For another assay, the system named is T84. The experiment in a line: Antiproliferative activity against human T84 cells assessed as growth inhibition incubated at 10 uM for 24 hrs by MTT assay relative to control. The assay is classed as functional. Particulars: read-out: GI.
A further assay relates to HT-29. The experiment in a line: Antiproliferative activity against human HT-29 cells assessed as growth inhibition incubated at 10 uM for 24 hrs by MTT assay relative to control. The assay is classed as functional. Particulars: read-out: GI.
The next assay deals with MCF7. The experiment in a line: Antiproliferative activity against human MCF7 cells assessed as growth inhibition incubated at 10 uM for 24 hrs by MTT assay relative to control. Type of assay: functional. Particulars: read-out: GI.
A further assay concerns BT-549. The experiment in a line: Antiproliferative activity against human BT-549 cells assessed as growth inhibition incubated at 10 uM for 24 hrs by MTT assay relative to control. Particulars: read-out: GI. Type of assay: functional.
A short description of assay [3]: Antiproliferative activity against human MDA-PATC53 cells assessed as growth inhibition incubated for 24 hrs by MTT assay. The assay is classed as functional, cell-based. Conditions: MDA-PATC53, 24 h.
The nature of assay [4]: Antiproliferative activity against human PL45 cells assessed as growth inhibition incubated for 24 hrs by MTT assay. Type of assay: functional, cell-based. Conditions: PL45, 24 h.
The target in assay [5] is Cyclin-dependent kinase 1 (Homo sapiens, UniProt P06493). The experiment in a line: Inhibition of CDK1 (unknown origin) by FRET assay.
The target of assay [6] is Cyclin-dependent kinase 2 (Homo sapiens, UniProt P24941). The experiment in a line: Inhibition of CDK2 (unknown origin) by FRET assay.
Assay [7] addresses Cyclin-dependent kinase 5 (Homo sapiens, UniProt Q00535). The experiment in a line: Inhibition of CDK5 (unknown origin) by FRET assay.
Assay [8] is described as follows: Selectivity index, ratio of IC50 for CDK2 (unknown origin) to CDK1 (unknown origin).
A short description of assay [9]: Selectivity index, ratio of IC50 for CDK5 (unknown origin) to CDK1 (unknown origin).
Assay [10] has as its target T1, Tyrosine-protein kinase receptor UFO (Homo sapiens, UniProt P30530).
T1 sequence (P30530 whole entry): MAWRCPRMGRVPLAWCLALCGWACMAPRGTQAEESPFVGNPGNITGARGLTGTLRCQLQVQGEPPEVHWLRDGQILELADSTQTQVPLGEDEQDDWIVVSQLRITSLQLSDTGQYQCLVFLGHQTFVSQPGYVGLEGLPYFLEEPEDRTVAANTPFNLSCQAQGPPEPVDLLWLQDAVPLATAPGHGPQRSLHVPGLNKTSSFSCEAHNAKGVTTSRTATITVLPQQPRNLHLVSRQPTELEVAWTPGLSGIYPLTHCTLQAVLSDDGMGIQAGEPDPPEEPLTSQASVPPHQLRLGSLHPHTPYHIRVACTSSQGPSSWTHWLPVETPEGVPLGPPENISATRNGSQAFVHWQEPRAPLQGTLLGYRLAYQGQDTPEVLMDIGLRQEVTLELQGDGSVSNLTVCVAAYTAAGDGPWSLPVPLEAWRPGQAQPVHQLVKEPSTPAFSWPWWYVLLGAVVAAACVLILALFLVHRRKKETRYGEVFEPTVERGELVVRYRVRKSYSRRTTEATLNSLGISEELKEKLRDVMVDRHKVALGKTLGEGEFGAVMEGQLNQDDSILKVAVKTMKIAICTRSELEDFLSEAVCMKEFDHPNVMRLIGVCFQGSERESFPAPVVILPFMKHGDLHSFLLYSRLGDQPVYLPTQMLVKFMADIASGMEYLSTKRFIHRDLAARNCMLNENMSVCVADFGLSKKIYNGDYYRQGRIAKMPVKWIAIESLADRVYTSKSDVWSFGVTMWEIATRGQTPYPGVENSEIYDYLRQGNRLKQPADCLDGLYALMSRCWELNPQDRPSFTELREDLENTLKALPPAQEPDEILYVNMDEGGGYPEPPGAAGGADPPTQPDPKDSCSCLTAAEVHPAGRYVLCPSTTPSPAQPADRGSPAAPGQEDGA
The experiment in a line: Inhibition of AXL (unknown origin) by FRET assay.

Assay [11] concerns the target Protein-tyrosine kinase 2-beta (Homo sapiens, UniProt Q14289). The experiment in a line: Inhibition of PTK2B (unknown origin) by FRET assay.
Assay [12] concerns the target Fibroblast growth factor receptor (Homo sapiens, UniProt P22607+P11362+P22455+P21802). The experiment in a line: Inhibition of FGFR (unknown origin) by FRET assay. The assay is classed as protein assay.
Assay [13] has as its target Tyrosine-protein kinase JAK1 (Homo sapiens, UniProt P23458). The experiment in a line: Inhibition of JAK1 (unknown origin) by FRET assay.
The target in assay [14] is Insulin-like growth factor 1 receptor (Homo sapiens, UniProt P08069). The experiment in a line: Inhibition of IGF1R (unknown origin) by FRET assay.
The target of assay [15] is Serine/threonine-protein kinase B-raf (Homo sapiens, UniProt P15056). The experiment in a line: Inhibition of BRAF (unknown origin) by FRET assay.

What is called IC50 is the midpoint of a concentration-inhibition curve.

Chain of Cyclin-dependent kinase 1 (P06493 whole entry): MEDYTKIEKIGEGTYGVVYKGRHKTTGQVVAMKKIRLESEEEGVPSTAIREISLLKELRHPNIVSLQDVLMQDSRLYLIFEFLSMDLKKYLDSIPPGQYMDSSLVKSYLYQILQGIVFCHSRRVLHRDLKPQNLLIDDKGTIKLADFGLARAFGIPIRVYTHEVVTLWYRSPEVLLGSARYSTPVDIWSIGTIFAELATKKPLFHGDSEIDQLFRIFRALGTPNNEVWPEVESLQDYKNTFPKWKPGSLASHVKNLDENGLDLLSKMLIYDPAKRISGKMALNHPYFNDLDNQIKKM
Chain of Protein-tyrosine kinase 2-beta (Q14289 whole entry): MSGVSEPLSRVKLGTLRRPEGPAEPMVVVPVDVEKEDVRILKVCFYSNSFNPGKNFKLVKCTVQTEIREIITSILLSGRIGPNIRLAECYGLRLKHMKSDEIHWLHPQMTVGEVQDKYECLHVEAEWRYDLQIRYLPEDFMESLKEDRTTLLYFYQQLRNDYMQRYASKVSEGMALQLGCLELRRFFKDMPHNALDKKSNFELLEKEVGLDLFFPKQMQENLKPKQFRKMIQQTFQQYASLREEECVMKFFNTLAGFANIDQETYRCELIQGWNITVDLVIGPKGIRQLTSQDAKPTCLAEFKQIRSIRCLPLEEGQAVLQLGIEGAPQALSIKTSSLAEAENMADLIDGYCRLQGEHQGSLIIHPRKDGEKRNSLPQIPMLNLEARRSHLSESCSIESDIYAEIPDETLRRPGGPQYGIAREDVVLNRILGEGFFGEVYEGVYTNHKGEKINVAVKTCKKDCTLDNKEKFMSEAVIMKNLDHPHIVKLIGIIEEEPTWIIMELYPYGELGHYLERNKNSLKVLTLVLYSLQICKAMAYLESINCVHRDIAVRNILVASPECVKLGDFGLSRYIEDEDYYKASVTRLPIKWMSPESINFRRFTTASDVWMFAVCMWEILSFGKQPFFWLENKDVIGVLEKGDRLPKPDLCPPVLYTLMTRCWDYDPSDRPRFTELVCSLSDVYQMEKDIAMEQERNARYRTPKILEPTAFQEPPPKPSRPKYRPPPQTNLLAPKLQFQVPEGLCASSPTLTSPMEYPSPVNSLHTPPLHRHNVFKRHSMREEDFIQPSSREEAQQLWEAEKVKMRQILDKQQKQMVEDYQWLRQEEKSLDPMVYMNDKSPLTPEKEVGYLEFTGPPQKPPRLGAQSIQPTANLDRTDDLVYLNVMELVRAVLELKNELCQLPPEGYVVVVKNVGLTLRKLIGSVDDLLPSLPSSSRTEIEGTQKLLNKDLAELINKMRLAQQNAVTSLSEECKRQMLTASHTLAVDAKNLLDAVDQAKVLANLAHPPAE
Chain of Insulin-like growth factor 1 receptor (P08069 31-736 limits assumed): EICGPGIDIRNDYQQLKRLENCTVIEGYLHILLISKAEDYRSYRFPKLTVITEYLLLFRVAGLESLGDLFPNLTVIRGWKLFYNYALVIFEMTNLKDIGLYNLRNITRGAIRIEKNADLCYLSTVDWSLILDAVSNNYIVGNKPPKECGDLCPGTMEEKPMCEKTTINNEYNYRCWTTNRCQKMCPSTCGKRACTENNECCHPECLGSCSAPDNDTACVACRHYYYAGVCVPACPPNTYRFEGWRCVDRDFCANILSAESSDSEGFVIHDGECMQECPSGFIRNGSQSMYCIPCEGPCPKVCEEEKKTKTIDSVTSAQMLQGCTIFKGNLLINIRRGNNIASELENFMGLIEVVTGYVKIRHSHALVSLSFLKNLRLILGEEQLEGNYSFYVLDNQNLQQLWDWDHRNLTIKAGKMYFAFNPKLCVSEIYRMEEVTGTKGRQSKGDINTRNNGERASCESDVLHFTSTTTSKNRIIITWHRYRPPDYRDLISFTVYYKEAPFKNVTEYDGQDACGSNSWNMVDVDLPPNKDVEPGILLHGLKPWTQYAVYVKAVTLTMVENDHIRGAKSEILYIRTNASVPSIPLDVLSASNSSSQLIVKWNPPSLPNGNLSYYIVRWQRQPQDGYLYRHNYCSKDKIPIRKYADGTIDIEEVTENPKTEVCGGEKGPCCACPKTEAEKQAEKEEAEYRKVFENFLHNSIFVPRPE
Chain of Insulin-like growth factor 1 receptor (P08069 741-1367 limits assumed): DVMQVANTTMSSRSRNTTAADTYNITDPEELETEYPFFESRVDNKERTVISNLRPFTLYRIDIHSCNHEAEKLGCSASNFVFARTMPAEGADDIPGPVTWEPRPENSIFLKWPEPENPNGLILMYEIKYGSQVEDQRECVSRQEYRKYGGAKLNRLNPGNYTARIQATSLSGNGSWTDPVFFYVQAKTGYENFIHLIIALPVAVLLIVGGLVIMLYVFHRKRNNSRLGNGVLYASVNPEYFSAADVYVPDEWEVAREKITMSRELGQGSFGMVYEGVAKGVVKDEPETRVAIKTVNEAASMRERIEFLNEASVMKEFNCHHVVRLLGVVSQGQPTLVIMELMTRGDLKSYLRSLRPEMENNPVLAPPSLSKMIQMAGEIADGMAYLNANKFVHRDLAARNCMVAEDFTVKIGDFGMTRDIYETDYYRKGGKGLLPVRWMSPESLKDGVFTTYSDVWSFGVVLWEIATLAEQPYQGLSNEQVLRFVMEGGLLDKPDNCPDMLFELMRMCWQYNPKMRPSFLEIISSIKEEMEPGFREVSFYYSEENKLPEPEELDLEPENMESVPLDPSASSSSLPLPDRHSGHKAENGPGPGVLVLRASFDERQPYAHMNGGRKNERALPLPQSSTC
Chain of Cyclin-dependent kinase 5 (Q00535 whole entry): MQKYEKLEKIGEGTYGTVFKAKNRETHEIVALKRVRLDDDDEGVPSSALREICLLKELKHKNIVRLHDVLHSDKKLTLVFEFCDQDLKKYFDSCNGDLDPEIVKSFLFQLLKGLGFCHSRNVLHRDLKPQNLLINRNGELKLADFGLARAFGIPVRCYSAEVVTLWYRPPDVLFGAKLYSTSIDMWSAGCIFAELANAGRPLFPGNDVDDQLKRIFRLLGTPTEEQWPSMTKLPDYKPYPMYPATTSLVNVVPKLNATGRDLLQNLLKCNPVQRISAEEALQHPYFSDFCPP
Chain of Tyrosine-protein kinase JAK1 (P23458 whole entry): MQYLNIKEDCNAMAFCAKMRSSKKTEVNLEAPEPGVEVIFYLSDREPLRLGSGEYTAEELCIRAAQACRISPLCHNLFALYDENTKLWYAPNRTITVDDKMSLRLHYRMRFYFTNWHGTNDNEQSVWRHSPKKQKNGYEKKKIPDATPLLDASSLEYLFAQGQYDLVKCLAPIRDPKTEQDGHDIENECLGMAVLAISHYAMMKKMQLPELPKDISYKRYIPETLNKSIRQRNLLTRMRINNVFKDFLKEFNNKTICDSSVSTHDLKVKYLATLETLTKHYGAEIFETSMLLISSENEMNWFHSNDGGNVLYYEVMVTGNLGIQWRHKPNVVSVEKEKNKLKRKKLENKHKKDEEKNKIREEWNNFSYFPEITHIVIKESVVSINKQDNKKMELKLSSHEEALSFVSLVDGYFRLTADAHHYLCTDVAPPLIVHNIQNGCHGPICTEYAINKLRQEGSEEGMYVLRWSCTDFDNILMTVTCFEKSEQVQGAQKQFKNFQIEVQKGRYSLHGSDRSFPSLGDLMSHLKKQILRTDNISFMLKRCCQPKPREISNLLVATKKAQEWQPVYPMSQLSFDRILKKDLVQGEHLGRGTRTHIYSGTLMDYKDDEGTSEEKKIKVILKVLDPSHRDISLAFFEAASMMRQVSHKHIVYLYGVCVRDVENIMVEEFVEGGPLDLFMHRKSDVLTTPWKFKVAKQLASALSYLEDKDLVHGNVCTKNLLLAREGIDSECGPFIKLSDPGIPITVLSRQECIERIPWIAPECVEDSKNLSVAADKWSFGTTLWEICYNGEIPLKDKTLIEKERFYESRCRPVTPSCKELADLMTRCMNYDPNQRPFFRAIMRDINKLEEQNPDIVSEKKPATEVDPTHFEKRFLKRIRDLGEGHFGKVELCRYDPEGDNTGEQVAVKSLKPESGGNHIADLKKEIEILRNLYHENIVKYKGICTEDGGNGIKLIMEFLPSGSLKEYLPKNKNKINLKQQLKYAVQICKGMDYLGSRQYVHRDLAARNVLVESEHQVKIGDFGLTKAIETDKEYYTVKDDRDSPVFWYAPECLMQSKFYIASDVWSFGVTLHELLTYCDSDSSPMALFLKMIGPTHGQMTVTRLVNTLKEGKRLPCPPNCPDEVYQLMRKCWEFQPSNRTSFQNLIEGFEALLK
Chain of Serine/threonine-protein kinase B-raf (P15056 whole entry): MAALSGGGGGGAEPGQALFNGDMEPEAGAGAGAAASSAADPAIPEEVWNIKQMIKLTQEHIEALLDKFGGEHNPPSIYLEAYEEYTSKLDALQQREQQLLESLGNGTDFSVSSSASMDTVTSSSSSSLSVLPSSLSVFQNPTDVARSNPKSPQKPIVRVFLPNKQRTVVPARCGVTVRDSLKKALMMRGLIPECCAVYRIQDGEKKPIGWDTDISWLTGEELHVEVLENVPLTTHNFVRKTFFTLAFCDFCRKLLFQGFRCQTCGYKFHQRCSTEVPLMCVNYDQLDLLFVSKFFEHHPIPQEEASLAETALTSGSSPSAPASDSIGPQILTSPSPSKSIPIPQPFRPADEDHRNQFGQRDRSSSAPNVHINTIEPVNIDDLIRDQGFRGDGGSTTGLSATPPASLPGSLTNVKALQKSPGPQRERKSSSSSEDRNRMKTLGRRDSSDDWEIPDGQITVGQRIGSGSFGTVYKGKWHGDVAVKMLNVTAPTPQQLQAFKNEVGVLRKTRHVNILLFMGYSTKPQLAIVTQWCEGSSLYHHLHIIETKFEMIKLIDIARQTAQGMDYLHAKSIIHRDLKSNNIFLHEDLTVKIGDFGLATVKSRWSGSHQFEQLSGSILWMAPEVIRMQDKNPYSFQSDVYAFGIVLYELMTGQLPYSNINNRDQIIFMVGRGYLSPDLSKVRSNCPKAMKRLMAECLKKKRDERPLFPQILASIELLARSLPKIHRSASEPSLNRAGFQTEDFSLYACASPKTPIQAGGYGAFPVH

As to `COc1ccc(Cc2nnc(N3CCN(C(=S)Nc4ccc(OC)cc4)CC3)c3ccccc23)cc1`, the inhibition of growth at 10 µM amounted to 66.4% in assay [1]; 83.5% in assay [2]; 29.4% with SK-MEL-1; 47.9% in the assay with A-375; 58.3% with G-361; 31.4% in the assay with MOLT-4. For the same compound, the inhibition of growth at 10 µM turned out to be 23.9% in the assay with KG-1; 19.3% in the assay with T84; 51.7% in the assay on HT-29; 73.1% in the assay with MCF7; 23.7% in the assay on BT-549. Also, the IC50 turned out to be 6.65 µM in assay [3]; 2.1 µM in assay [4]; 0.0844 µM in assay [5]; 0.396 µM in [6]; 0.452 µM in assay [7]; 8.41 µM in assay [10]. Also, the IC50 in [11] was 3.66 µM; in assay [12], 3.566 µM; in assay [13] it was 1.54 µM; in assay [14], 5.65 µM; in assay [15], 3.05 µM. Besides, the Ratio IC50 in assay [8] is 4.7; in assay [9], 5.36.
Regarding `COc1ccc(Cc2nnc(N3CCN(C(=O)c4ccccc4)CC3)c3ccccc23)cc1`, the inhibition of growth at 10 µM in assay [1] stood at 70.4%; in [2] it was 44.6%; with SK-MEL-1, 2.02%; in the assay on A-375 it was 10.3%; in the assay on G-361, 8.66%; in the assay with MOLT-4, 9.47%. Moreover, the inhibition of growth at 10 µM is 12.1% with KG-1; 18.3% with T84; 5.09% in the assay on HT-29; 11.4% in the assay on MCF7; 19% in the assay with BT-549. Also, the IC50 was 4.07 µM in assay [3]; 12.9 µM in [4]; 0.091 µM in assay [5]; 0.455 µM in [6]; 0.391 µM in assay [7]; 5.49 µM in [10]. Besides, the IC50 in [11] was found to be 4.33 µM; in assay [12] it was 6.332 µM; in assay [13] it was 5.6 µM; in [14], 1.53 µM; in assay [15], 3.26 µM. Further, the Ratio IC50 stood at 5 in assay [8] and 4.3 in [9].
As to `S=C(Nc1ccc(Cl)cc1)N1CCN(c2nnc(Cc3ccccc3)c3ccccc23)CC1`, the inhibition of growth at 10 µM in assay [1] was determined as 49.3%; in [2], 64.1%; in the assay on SK-MEL-1, 5.4%; in the assay with A-375, 8.39%; in the assay on G-361 it was 1.08%; with MOLT-4 it was 19.6%. Further, the inhibition of growth at 10 µM with KG-1 was 8.92%; in the assay on T84, 12.2%; in the assay with HT-29, 10.8%; in the assay on MCF7 it was 7.64%; with BT-549, 18.6%. The IC50 in assay [3] was determined as 11.9 µM; in [4], 6.75 µM; in assay [5], 0.109 µM; in [6], 0.341 µM; in assay [7] it was 0.358 µM; in assay [10], 3.63 µM. The 50% inhibitory concentration (IC50) turned out to be 5.21 µM in assay [11]; 5.278 µM in assay [12]; 6.61 µM in [13]; 6.3 µM in [14]; 4.99 µM in [15]. The figures for the Ratio IC50 in assay [8] and in [9] were 3.13 and 3.29, respectively.
`COc1ccc(Cc2nnc(N3CCN(C(=O)Nc4ccc(OC)cc4)CC3)c3ccccc23)cc1`: the inhibition of growth at 10 µM in assay [1] stood at 73.1%; in assay [2], 66.1%; in the assay with SK-MEL-1, 39%; with A-375, 25.8%; with G-361, 49%; with MOLT-4 it was 25.4%. Moreover, the inhibition of growth at 10 µM was 0.31% in the assay with KG-1; 57.5% in the assay with T84; 32.1% with HT-29; 24.2% in the assay with MCF7; 50.3% with BT-549. Moreover, the IC50 in assay [3] was determined as 4.12 µM; in assay [4], 5.09 µM; in assay [5], 0.052 µM; in assay [6] it was 0.345 µM; in [7], 0.14 µM; in [10], 4.74 µM. The IC50 in assay [11] turned out to be 4.82 µM; in assay [12], 3.512 µM; in [13], 1.57 µM; in assay [14], 0.865 µM; in assay [15], 3.7 µM. In addition, the results for the Ratio IC50 in assay [8] and in assay [9] were 6.63 and 2.7, respectively.
For the compound `COc1ccc(NC(=S)N2CCN(c3nnc(Cc4ccccc4)c4ccccc34)CC2)cc1`, the inhibition of growth at 10 µM in assay [1] stood at 49%; in assay [2], 49.6%; in the assay on SK-MEL-1 it was 6.64%; in the assay with A-375, 11.2%; in the assay on G-361 it was 24.6%; with MOLT-4, 14.2%. Besides, the inhibition of growth at 10 µM in the assay on KG-1 turned out to be 1.36%; with T84, 9.67%; in the assay with HT-29, 21.9%; in the assay with MCF7 it was 10.1%; with BT-549, 8.65%. In addition, the IC50 is 10.2 µM in [3]; 12.5 µM in assay [4]; 0.126 µM in [5]; 0.308 µM in assay [6]; 0.498 µM in [7]; 4.42 µM in assay [10]. Further, the IC50 in assay [11] was 3.64 µM; in assay [12] it was 5.517 µM; in assay [13] it was 2.54 µM; in assay [14] it was 8.63 µM; in assay [15], 4.49 µM. Also, the Ratio IC50 in assay [8] is 2.43; in [9], 3.94.
Consider `O=C(Nc1ccc(Cl)c(C(F)(F)F)c1)N1CCN(c2nnc(Cc3ccccc3)c3ccccc23)CC1`, for which the inhibition of growth at 10 µM in assay [1] was found to be 55.4%; in [2] it was 42.4%; in the assay on SK-MEL-1 it was 3.34%; in the assay with A-375, 9.17%; in the assay with G-361, 2.47%; in the assay with MOLT-4, 5.22%. The inhibition of growth at 10 µM in the assay on KG-1 was 1.35%; with T84, 4.71%; in the assay on HT-29, 18.9%; in the assay on MCF7 it was 2.2%; in the assay on BT-549 it was 1.08%. The IC50 came to 8.6 µM in [3]; 13.1 µM in assay [4]; 0.104 µM in [5]; 0.722 µM in [6]; 0.405 µM in [7]; 6.95 µM in assay [10]. The half-inhibitory concentration (IC50) in assay [11] turned out to be 2.68 µM; in assay [12], 8.565 µM; in [13], 5.18 µM; in [14] it was 4.25 µM; in [15], 1.48 µM. In addition, the figures for the Ratio IC50 in assay [8] and in assay [9] were 6.97 and 3.91, respectively.
Turning to `CCc1cnn2c(NCc3ccc[n+]([O-])c3)cc(N3CCCC[C@H]3CCO)nc12` [DINACICLIB], the IC50 in [3] turned out to be 0.024 µM; in assay [4] it was 0.015 µM.
